Key:
barnyardgrass [1] = test: Test C flooded paddy test; assay type: in vivo, Echinochloa crus-galli; conditions: Flood
Summary of the method: (§1)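 Ratings reflect visual comparison with controls on a 0–100 scale, where 100 is complete control. Compound is dosed into standing paddy water 3 cm deep over 2-leaf-stage plants, kept in the greenhouse 13 to 15 days.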

rice = test: Test C flooded paddy test; assay type: in vivo, Oryza sativa; conditions: Flood
Summary of the method: as §1

corn = test: Test A pre-/postemergence herbicide test; assay type: in vivo, Zea mays; conditions: for Corn plant response rating: Preemergence, visual rating on 0 to 100 scale (0 no effect, 100 complete control)
Summary of the method: (§2)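 Seeds in loam–sand blend received preemergence directed soil spray; separately, plants 2–10 cm at one- to two-leaf stage received postemergence spray, both with test chemicals in non-phytotoxic solvent with surfactant. After ~10 days in greenhouse, injury rated visually against untreated controls, 0 (no effect) to 100 (complete control).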

barnyardgrass [2] = test: Test A pre-/postemergence herbicide test; assay type: in vivo, Echinochloa crus-galli; conditions: for Barnyardgrass plant response rating: Preemergence, visual rating on 0 to 100 scale (0 no effect, 100 complete control)
Summary of the method: as §2

pigweed = test: Test A pre-/postemergence herbicide test; assay type: in vivo, Amaranthus retroflexus; conditions: for Pigweed plant response rating: Preemergence, visual rating on 0 to 100 scale (0 no effect, 100 complete control)
Summary of the method: as §2

crabgrass, large = test: Test A pre-/postemergence herbicide test; assay type: in vivo, Digitaria sanguinalis; conditions: for Crabgrass, Large plant response rating: Preemergence, visual rating on 0 to 100 scale (0 no effect, 100 complete control)
Summary of the method: as §2

morningglory = test: Test A pre-/postemergence herbicide test; assay type: in vivo, Ipomoea spp.; conditions: for Morningglory plant response rating: Preemergence, visual rating on 0 to 100 scale (0 no effect, 100 complete control)
Summary of the method: as §2

sedge, umbrella = test: Test C flooded paddy test; assay type: in vivo, Cyperus difformis; conditions: Flood
Summary of the method: as §1

wheat = test: Test A pre-/postemergence herbicide test; assay type: in vivo, Triticum aestivum; conditions: for Wheat plant response rating: Preemergence, visual rating on 0 to 100 scale (0 no effect, 100 complete control)
Summary of the method: as §2

ducksalad = test: Test C flooded paddy test; assay type: in vivo, Heteranthera limosa; conditions: Flood
Summary of the method: as §1

velvetleaf = test: Test A pre-/postemergence herbicide test; assay type: in vivo, Abutilon theophrasti; conditions: for Velvetleaf plant response rating: Preemergence, visual rating on 0 to 100 scale (0 no effect, 100 complete control)
Summary of the method: as §2

giant foxtail = test: Test A pre-/postemergence herbicide test; assay type: in vivo, Setaria faberii; conditions: for Foxtail, Giant plant response rating: Preemergence, visual rating on 0 to 100 scale (0 no effect, 100 complete control)
Summary of the method: as §2

[3] = 31 g ai/ha, scale of 0 to 100 where 0 is no effect and 100 is complete control, 13 to 15 days
[4] = 62 g ai/ha, scale of 0 to 100 where 0 is no effect and 100 is complete control, 13 to 15 days
[5] = 125 g ai/ha, scale of 0 to 100 where 0 is no effect and 100 is complete control, 13 to 15 days
[6] = Postemergence, 125 g ai/ha, 0 to 100 scale, 0 no effect, 100 complete control
[7] = Postemergence, 500 g ai/ha, 0 to 100 scale (0 no effect, 100 complete control)
[8] = preemergence, 500 g ai/ha, 0 to 100 scale
[9] = preemergence, 500 g ai/ha, 0 to 100 scale (0 no effect, 100 complete control)

O=C1NCC(c2ccsc2)C1C(=O)Nc1ccccc1C(F)(F)F (racemic) [Compound 28]
Plant response rating, Barnyardgrass (barnyardgrass [1]; [3]): 0 | Plant response rating, Barnyardgrass (barnyardgrass [1]; [4]): 0 | Plant response rating, Barnyardgrass (barnyardgrass [1]; [5]): 0 | Plant response rating, Barnyardgrass (barnyardgrass [1]; 250 g ai/ha, scale 0 to 100): 0 | Plant response rating, Rice (rice; [3]): 0 | Plant response rating, Rice (rice; [4]): 0 | Plant response rating, Rice (rice; [5]): 0 | Plant response rating, Rice (rice; 250 g ai/ha, scale 0 to 100): 0 | Plant response rating, Corn (corn; [6]): 0 | Plant response rating, Corn (corn; [7]): 0 | Corn plant response rating (corn; 125 g ai/ha): 0 | Plant response rating, Corn (corn; [8]): 0 | Plant response rating, Barnyardgrass (barnyardgrass [2]; [6]): 0 | Plant response rating, Barnyardgrass (barnyardgrass [2]; [7]): 0 | Barnyardgrass plant response rating (barnyardgrass [2]; 125 g ai/ha): 0 | Plant response rating, Barnyardgrass (barnyardgrass [2]; [9]): 20 | Plant response rating, Pigweed (pigweed; [6]): 0 | Plant response rating, Pigweed (pigweed; [7]): 0 | Pigweed plant response rating (pigweed; 125 g ai/ha): 0 | Plant response rating, Pigweed (pigweed; [8]): 0 | Plant response rating, Crabgrass, Large (crabgrass, large; [6]): 20 | Plant response rating, Crabgrass, Large (crabgrass, large; [7]): 40 | Crabgrass, Large plant response rating (crabgrass, large; 125 g ai/ha): 30 | Plant response rating, Crabgrass, Large (crabgrass, large; [8]): 80 | Plant response rating, Morningglory (morningglory; [6]): 0 | Plant response rating, Morningglory (morningglory; [7]): 0 | Morningglory plant response rating (morningglory; 125 g ai/ha): 0 | Plant response rating, Morningglory (morningglory; [8]): 0 | Plant response rating, Sedge, Umbrella (sedge, umbrella; [3]): 0 | Plant response rating, Sedge, Umbrella (sedge, umbrella; [4]): 0 | Plant response rating, Sedge, Umbrella (sedge, umbrella; [5]): 0 | Plant response rating, Sedge, Umbrella (sedge, umbrella; 250 g ai/ha, scale 0 to 100): 0 | Plant response rating, Wheat (wheat; [6]): 0 | Plant response rating, Wheat (wheat; [7]): 0 | Wheat plant response rating (wheat; 125 g ai/ha): 0 | Plant response rating, Wheat (wheat; [8]): 0 | Plant response rating, Ducksalad (ducksalad; [3]): 20 | Plant response rating, Ducksalad (ducksalad; [4]): 30 | Plant response rating, Ducksalad (ducksalad; [5]): 40 | Plant response rating, Ducksalad (ducksalad; 250 g ai/ha, scale 0 to 100): 85 | Plant response rating, Velvetleaf (velvetleaf; [7]): 0 | Velvetleaf plant response rating (velvetleaf; 125 g ai/ha): 0 | Plant response rating, Velvetleaf (velvetleaf; [8]): 0 | Plant response rating, Foxtail, Giant (giant foxtail; [6]): 0 | Plant response rating, Foxtail, Giant (giant foxtail; [7]): 0 | Foxtail, Giant plant response rating (giant foxtail; 125 g ai/ha): 0 | Plant response rating, Foxtail, Giant (giant foxtail; [8]): 20

O=C1NCC(c2ccc(F)c(F)c2)C1C(=O)Nc1cccc(F)c1F (racemic) [Compound 107]
Plant response rating, Barnyardgrass (barnyardgrass [1]; [5]): 0 | Plant response rating, Barnyardgrass (barnyardgrass [1]; 250 g ai/ha, scale 0 to 100): 0 | Plant response rating, Barnyardgrass (barnyardgrass [1]; 500 g ai/ha, scale 0 to 100): 0 | Plant response rating, Barnyardgrass (barnyardgrass [1]; 1000 g ai/ha, scale 0 to 100): 20 | Plant response rating, Rice (rice; [5]): 0 | Plant response rating, Rice (rice; 250 g ai/ha, scale 0 to 100): 0 | Plant response rating, Rice (rice; 500 g ai/ha, scale 0 to 100): 0 | Plant response rating, Rice (rice; 1000 g ai/ha, scale 0 to 100): 0 | Plant response rating, Corn (corn; [6]): 0 | Plant response rating, Corn (corn; [7]): 0 | Corn plant response rating (corn; 125 g ai/ha): 0 | Plant response rating, Corn (corn; [8]): 0 | Plant response rating, Barnyardgrass (barnyardgrass [2]; [6]): 50 | Plant response rating, Barnyardgrass (barnyardgrass [2]; [7]): 80 | Barnyardgrass plant response rating (barnyardgrass [2]; 125 g ai/ha): 20 | Plant response rating, Barnyardgrass (barnyardgrass [2]; [9]): 70 | Plant response rating, Pigweed (pigweed; [6]): 0 | Plant response rating, Pigweed (pigweed; [7]): 30 | Pigweed plant response rating (pigweed; 125 g ai/ha): 0 | Plant response rating, Pigweed (pigweed; [8]): 20 | Plant response rating, Crabgrass, Large (crabgrass, large; [6]): 60 | Plant response rating, Crabgrass, Large (crabgrass, large; [7]): 70 | Crabgrass, Large plant response rating (crabgrass, large; 125 g ai/ha): 80 | Plant response rating, Crabgrass, Large (crabgrass, large; [8]): 90 | Plant response rating, Morningglory (morningglory; [6]): 0 | Plant response rating, Morningglory (morningglory; [7]): 40 | Morningglory plant response rating (morningglory; 125 g ai/ha): 0 | Plant response rating, Morningglory (morningglory; [8]): 0 | Plant response rating, Sedge, Umbrella (sedge, umbrella; [5]): 0 | Plant response rating, Sedge, Umbrella (sedge, umbrella; 250 g ai/ha, scale 0 to 100): 0 | Plant response rating, Sedge, Umbrella (sedge, umbrella; 500 g ai/ha, scale 0 to 100): 0 | Plant response rating, Sedge, Umbrella (sedge, umbrella; 1000 g ai/ha, scale 0 to 100): 0 | Plant response rating, Wheat (wheat; [6]): 0 | Plant response rating, Wheat (wheat; [7]): 0 | Wheat plant response rating (wheat; 125 g ai/ha): 0 | Plant response rating, Wheat (wheat; [8]): 0 | Plant response rating, Ducksalad (ducksalad; [5]): 0 | Plant response rating, Ducksalad (ducksalad; 250 g ai/ha, scale 0 to 100): 30 | Plant response rating, Ducksalad (ducksalad; 500 g ai/ha, scale 0 to 100): 60 | Plant response rating, Ducksalad (ducksalad; 1000 g ai/ha, scale 0 to 100): 70 | Plant response rating, Velvetleaf (velvetleaf; [6]): 0 | Plant response rating, Velvetleaf (velvetleaf; [7]): 20 | Velvetleaf plant response rating (velvetleaf; 125 g ai/ha): 0 | Plant response rating, Velvetleaf (velvetleaf; [8]): 0 | Plant response rating, Foxtail, Giant (giant foxtail; [6]): 10 | Plant response rating, Foxtail, Giant (giant foxtail; [7]): 70 | Foxtail, Giant plant response rating (giant foxtail; 125 g ai/ha): 70 | Plant response rating, Foxtail, Giant (giant foxtail; [8]): 80

From US10294202B2, “Pyrrolidinones as herbicides” (FMC Corporation, priority 2013, dated 2019)
